Here are results for 3 molecules from article PMC8474116, “Discovery of Novel Acetamide-Based Heme Oxygenase-1 Inhibitors with Potent In Vitro Antiproliferative Activity” (Journal of Medicinal Chemistry, 2021).

The structures appear in SMILES notation.

For data set [1], the target named is T1, human CYP2D6 (Homo sapiens, UniProt P10635).
T1 construct: Eurofins Scientific (contract assay) 1338
The data set is described as follows: CYP2D6 inhibition (Eurofins). The format is in vitro ADME. An excerpt: (§1) In vitro ADMET testing has been performed at Eurofins Scientific.

Data set [2] deals with T2, human CYP3A4 (Homo sapiens, UniProt P08684).
T2 construct: Eurofins Scientific (contract assay) 391
The data set is described as follows: CYP3A4 inhibition (Eurofins). The format is in vitro ADME.
Description: as §1

In data set [3] the target is T3, hERG potassium channel (Homo sapiens, UniProt Q12809).
T3 construct: Eurofins Scientific (contract assay) 4094
As to the kind of experiment: hERG human potassium ion channel binding (Eurofins).
Description: as §1
A general note: hERG is a cardiac potassium channel; its block is linked to QT prolongation.

For data set [4], the system named is HO-1. As to the kind of experiment: HO-1 protein expression by Western blot, U87MG. Type of data set: cell-based, human. To be noted: 10 μM, 48 h. How it is done: (§2) Proteins were extracted from total cell lysate, as previously described.[61] Briefly, cell lines were added to a buffer containing 20 mM Tris (pH 7.4), 2 mM EDTA, 0.5 mM EGTA, 50 mM mercaptoethanol, and […] sucrose supplemented with phosphatase and protease inhibitor cocktails (Roche Diagnostics, Monza, Italy). Subsequently, protein samples were sonicated twice for 20′ by using an ultrasonic probe, followed by centrifugation at 10 000g for 10 min at 4 °C. Sample proteins (30 μg) were diluted in 4X NuPage LDS sample buffer (Invitrogen, NP0007), heated at 80 °C for 5 min, and then separated on a Biorad Criterion XT 4–15% Bis–Tris gel (BIO-RAD) by electrophoresis and then transferred to a PVDF membrane (BIO-RAD). Blots were blocked using the Odyssey Blocking Buffer (LI-COR Biosciences) and probed with appropriate antibodies: HO-1 antibody (GeneTex GTX101147), goat polyclonal anti-VEGF (cat. no. sc-1836, Santa Cruz Biotechnology), and rabbit polyclonal anti-β-tubulin (cat n.sc-9104, Santa Cruz Biotechnology) and β-actin antibody (GeneTex GTX109639).
(§3) The secondary antibodies goat antirabbit (Odyssey, #926-32211; Odyssey #926-68021) and donkey antigoat IRDye 800CW (cat #926-32214; Li-Cor Biosciences) were used at 1:7000. Blots were scanned, and densitometric analysis was performed with the Odyssey Infrared Imaging System. Values were normalized to β-actin and to β-tubulin.
For orientation: Immunoblotting shows a protein as a band on a membrane.

Data set [5] has as its system HO. The data set is described as follows: HO enzymatic activity in U87MG cell line (cell lysate, bilirubin formation). Type of data set: cell-based, human. As to conditions: U87MG treated with 10 μM. How it is done:
U87MG cells were incubated for 24 h in the presence or absence of 10 μM of compound 7l. Total HO activity in the cell lysate was determined by measuring the bilirubin formation using the difference in absorbance at 464–530 nm.[2] Reaction mixtures (500 μL) consisted of 20 mM of Tris–HCl, pH 7.4, 1 mg/mL of cell lysate, 0.5–2 mg/mL of biliverdin reductase, 1 mM of NADPH, 2 mM of glucose 6-phosphate (G6P), 1 U of G6P dehydrogenase, 25 μM of hemin, and 10 μL of DMSO. Incubations were carried out for 60 min at 37 °C in a circulating water bath in the dark. Reactions were stopped by adding 1 volume of chloroform. After recovering the chloroform phase, the amount of bilirubin formed was measured with a double-beam spectrophotometer as OD464–530 nm (extinction coefficient, 40 mM/cm for bilirubin). One unit of the enzyme was defined as the amount of enzyme catalyzing the formation of 1 nmol of bilirubin/mg protein/h.

The subject of data set [6] is HO-1. As to the kind of experiment: HO-1 immunolocalization (immunofluorescence) in U87MG. Type of data set: cell-based, human. To be noted: 10 μM, 48 h. Here is the method:
To determine the cellular distribution of heme oxygenase-1 in tumor cells, immunofluorescence analysis was performed as previously described.[62] Tumor cell lines were cultured on glass coverslips fixed in 4% paraformaldehyde in PBS (15′ at room temperature), permeabilized with 0.2% of Triton X100, blocked with 0.1% of BSA in PBS, and then probed with rabbit HO-1 antibody. […] DNA was counterstained stained with DAPI (#940110, Vector Laboratories). After a series of PBS and double-distilled water washes, the fixed cells were cover-slipped with the Vectashield mounting medium (Vector Laboratories, Inc., Burlingame, CA). Localization of the antibody was performed by Zeiss fluorescent microscopy.

For data set [7], the system named is VEGF-A. As to the kind of experiment: VEGF-A release in conditioned media, ELISA, U87MG. Type of data set: cell-based, human. As to conditions: 10 μM, 48 h. How it is done: VEGF-A release in conditioned media was measured using the ELISA sandwich enzymatic method with specific anti-VEGF-A (cat. No. ELH-VEGF) antibodies coated on a 96-well plate, according to the manufacturer’s guidelines. Briefly, confluent U87MG cells grown in media supplemented with 1% FBS were treated for 48 h with 10 μM of 7l. Standards and supernatants from samples were pipetted into the wells containing the immobilized VEGF antibody. The wells were then washed before adding a biotinylated antihuman VEGF antibody. Following incubation, the unbound biotinylated antibody was washed off, and HRP-conjugated streptavidin was pipetted in each well. After an additional wash step, a TMB substrate solution was added to each well, resulting in blue coloration proportional to the amount of bound VEGF. Finally, the stop solution was added, and the colorimetric intensity of the blue substrate now turned yellow was measured at 450 nm.

The test system of data set [8] is HO-1. The data set is described as follows: HO-1 protein expression by Western blot, A172. The format is cell-based, human. To be noted: A172, 10 μM, 48 h. Here is the method:
as §2, §3

Data set [9] deals with HO-1. The data set is described as follows: HO-1 protein expression by Western blot, DU145. Type of data set: cell-based. To be noted: DU145, 10 μM, 48 h. Here is the method:
as §2, §3

The subject of data set [10] is A549 cells. The data set is described as follows: MTT cell viability assay, A549. The format is cell-based, human. As to conditions: 48 h, 10 μM. How it is done: (§4) Experiments were performed on human GBM cell lines U87MG (ATCCC number #HTB-14) and A172 (ATCCC #CRL-1620) on DU145 (ATCC HTB-81) and human lung adenocarcinoma A549 (ATCC CCL-185-LUC2). All cell lines were obtained from the American Type Culture Collection (ATCC, Rockville, MD). Cells were grown in Dulbecco’s modified Eagle’s medium (DMEM) supplemented with 10% of heat-inactivated fetal bovine serum (FBS), 100 U/mL of penicillin, and 100 μg/mL of streptomycin (Sigma-Aldrich, Steinheim, Germany). Cells were incubated at 37 °C in a humidified atmosphere with 5% CO2.
(§5) The effect of selected compounds 7i and 7l–p on cell viability was assessed by performing an MTT assay. Cells were seeded into 96-well plates at a density of 7 × 10^3 cells/well in 100 μL of culture medium. After 24 h, cells were treated with selected compounds at three different concentrations (1 μM, 10 μM, and 50 μM) for 48 h. Following treatments, 0.5 mg/mL of 3-[4,5-dimethylthiazol-2-yl]-2,5-diphenyltetrazolium bromide (MTT) (Sigma-Aldrich) was added to each well and incubated for 4 h at 37 °C. Finally, dimethyl-sulfoxide (DMSO) was used to dissolve formazan salts, and absorbance was measured at 570 nm in a microplate reader (Biotek Synergy-HT). Eight replicate wells were used for each group.
(In general: Formazan colour is commonly taken as a measure of viable cells.)

Data set [11] deals with DU145 cells. As to the kind of experiment: MTT cell viability assay, DU145. Type of data set: cell-based. To be noted: 48 h, 1 μM and 10 μM. How it is done:
as §4, §5

Data set [12] concerns HO-1. The data set is described as follows: HO-1 protein expression by Western blot, A549. The format is cell-based, human. As to conditions: A549, 10 μM, 48 h. How it is done: as §2, §3

T3 sequence (Q12809 whole entry): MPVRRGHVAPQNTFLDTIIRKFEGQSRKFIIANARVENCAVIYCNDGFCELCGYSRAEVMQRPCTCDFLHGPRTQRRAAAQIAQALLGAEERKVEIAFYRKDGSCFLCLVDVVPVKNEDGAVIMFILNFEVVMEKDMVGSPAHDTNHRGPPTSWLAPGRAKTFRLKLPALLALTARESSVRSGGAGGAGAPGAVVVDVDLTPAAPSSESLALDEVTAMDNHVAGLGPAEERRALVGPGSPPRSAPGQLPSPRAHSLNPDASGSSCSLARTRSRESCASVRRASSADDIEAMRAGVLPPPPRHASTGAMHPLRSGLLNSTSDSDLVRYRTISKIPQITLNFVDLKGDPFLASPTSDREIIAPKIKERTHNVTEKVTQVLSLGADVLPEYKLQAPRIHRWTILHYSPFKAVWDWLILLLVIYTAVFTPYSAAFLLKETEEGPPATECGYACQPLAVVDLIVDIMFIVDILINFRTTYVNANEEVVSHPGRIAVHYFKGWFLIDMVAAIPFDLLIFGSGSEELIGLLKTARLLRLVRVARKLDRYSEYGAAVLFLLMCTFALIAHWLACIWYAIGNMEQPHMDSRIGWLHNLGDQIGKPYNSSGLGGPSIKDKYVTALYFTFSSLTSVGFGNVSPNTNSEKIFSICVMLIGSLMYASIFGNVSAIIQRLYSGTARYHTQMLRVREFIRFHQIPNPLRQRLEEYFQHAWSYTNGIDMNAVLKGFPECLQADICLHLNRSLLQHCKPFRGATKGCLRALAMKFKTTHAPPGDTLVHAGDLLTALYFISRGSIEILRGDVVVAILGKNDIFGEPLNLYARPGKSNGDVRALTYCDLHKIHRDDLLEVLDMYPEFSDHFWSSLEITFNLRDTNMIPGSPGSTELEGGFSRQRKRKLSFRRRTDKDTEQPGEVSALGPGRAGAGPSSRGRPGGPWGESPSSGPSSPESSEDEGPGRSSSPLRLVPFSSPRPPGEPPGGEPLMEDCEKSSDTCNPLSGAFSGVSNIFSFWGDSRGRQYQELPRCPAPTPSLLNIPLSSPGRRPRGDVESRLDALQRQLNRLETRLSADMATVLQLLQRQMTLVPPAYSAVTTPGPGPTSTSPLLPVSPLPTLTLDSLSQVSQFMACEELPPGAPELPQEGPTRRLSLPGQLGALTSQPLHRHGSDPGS
T1 sequence (P10635 whole entry): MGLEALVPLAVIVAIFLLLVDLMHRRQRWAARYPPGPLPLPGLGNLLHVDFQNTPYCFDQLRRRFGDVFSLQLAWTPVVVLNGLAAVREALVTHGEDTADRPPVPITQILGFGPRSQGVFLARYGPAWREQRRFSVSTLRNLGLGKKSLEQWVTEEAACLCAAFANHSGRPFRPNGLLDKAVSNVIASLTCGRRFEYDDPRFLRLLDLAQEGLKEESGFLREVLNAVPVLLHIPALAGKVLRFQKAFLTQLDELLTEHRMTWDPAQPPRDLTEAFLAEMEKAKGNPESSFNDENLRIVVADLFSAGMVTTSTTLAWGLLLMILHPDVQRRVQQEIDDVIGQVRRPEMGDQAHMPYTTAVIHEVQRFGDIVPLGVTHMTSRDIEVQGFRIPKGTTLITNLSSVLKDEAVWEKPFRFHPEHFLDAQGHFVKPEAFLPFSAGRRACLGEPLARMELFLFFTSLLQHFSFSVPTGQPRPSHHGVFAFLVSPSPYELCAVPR
T2 sequence (P08684 whole entry): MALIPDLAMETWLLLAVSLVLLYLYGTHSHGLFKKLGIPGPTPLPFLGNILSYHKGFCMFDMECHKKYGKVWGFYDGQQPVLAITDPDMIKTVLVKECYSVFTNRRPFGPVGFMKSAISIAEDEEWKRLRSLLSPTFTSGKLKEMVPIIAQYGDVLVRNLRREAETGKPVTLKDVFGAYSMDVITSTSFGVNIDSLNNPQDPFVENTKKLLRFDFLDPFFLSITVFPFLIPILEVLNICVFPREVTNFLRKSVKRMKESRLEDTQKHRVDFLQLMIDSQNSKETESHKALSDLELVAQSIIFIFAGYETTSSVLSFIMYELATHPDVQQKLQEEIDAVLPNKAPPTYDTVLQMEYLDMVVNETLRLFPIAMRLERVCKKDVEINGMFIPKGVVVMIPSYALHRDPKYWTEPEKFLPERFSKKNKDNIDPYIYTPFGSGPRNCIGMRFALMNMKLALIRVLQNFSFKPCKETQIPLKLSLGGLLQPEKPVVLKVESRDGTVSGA

As for `CN(C(=O)Cn1ccnc1)C(c1ccccc1)c1ccc(Cl)cc1` (stereo not shown) [7l, N-((4-Chlorophenyl)(phenyl)methyl)-2-(1H-imidazol-1-yl)-N-methylacetamide], the values for the IC50 in data set [1] and in [2] were 2500 nM and 180 nM, respectively. Moreover, testing at 1 µM in data set [3] gave an inhibition of 5.7%. Besides, in data set [4], the “HO-1 protein expression (in words)” value was “reduced HO-1 expression”. In addition, in data set [5], the “HO enzymatic activity in cell lysates (in words)” value is recorded as “reduced HO activity”. Further, the “HO-1 immunoreactivity (in words)” value in data set [6] is listed as “reduced the immunoreactivity of HO-1”. Also, the “VEGF release in the culture medium (in words)” value in data set [7] was “significant reduction”.
Regarding `CN(C(=O)Cn1ccnc1)C(c1ccccc1)c1ccc(I)cc1` (stereo not shown) [7n, 2-(1H-Imidazol-1-yl)-N-((4-iodophenyl)(phenyl)methyl)-N-methylacetamide], the “HO-1 protein expression (in words)” value in [4] is reported as “enhanced its levels”; in [8], “enhanced its levels”; in data set [9] it was “reduced HO-1 protein expression”.
`CN(C(=O)Cn1ccnc1)C(c1ccccc1)c1ccc(OCc2ccccc2)cc1` (stereo not shown) [7o, N-((4-(Benzyloxy)phenyl)(phenyl)methyl)-2-(1H-imidazol-1-yl)-N-methylacetamide]: the “cell viability reduction (in words)” value in data set [10] is listed as “weak effect”; in [11], “had efficacies”. The “HO-1 protein expression (in words)” value in [12] is given as “upregulated its expression”.

As usually defined, the IC50 is the concentration that inhibits the measured activity by half. Higher therefore signals a need for much substance. Usually inhibition stands for how much of the control response was suppressed. Read a low inhibition as a response near the control.
